# Measured values as given in publication PMC5920042, “KH176 Safeguards Mitochondrial Diseased Cells from Redox Stress-Induced Cell Death by Interacting with the Thioredoxin System/Peroxiredoxin Enzyme Machinery” (Scientific Reports, 2018).
# pEC50, pIC50, pKd: −log10 of the molar value.
# Legend:
# [1] = tested on: P4 cell line; assay: Radical-Scavenging Capacity assay (CM-H2DCFDA, H2O2 or KO2); assay type: cell-based, human; details: P4 cells, 100 µM H2O2 or 1 mM KO2 (text: KOH), 3 µM compound
# Method: Cells were seeded at a density of 4 × 10^3 cells/well into 96-wells black plates. After 24 h the cells were loaded with 5 µM CM-H2DCFDA in M199 without phenol red for 20 min. The dye excess was washed with M199 without phenol red and immediately after, cells were treated acutely with different concentrations of the test compounds in M199 without phenol red. To generate radicals, 100 µM H2O2 or 1 mM KO2 were injected to the compound-treated cells and CM-DCF fluorescence was measured every 2 min for 70 cycles on a scanning microplate reader (BMG FLUOstar Omega; Ex. 480 nm, Em. 520 nm). The area under the generated curves was calculated using the Origin 6.1 software (OriginLab).
# [2] = tested on: primary human skin fibroblasts; assay: Cellular superoxide detection by HEt oxidation; assay type: cell-based; details: basal, 24 h compound; read-out: EC50 decrease of basal cellular superoxide levels (HEt)
# Method: The cells were seeded at a density of 3 × 10^3 cells/well into 96-wells black plates. After 24 h, the cells were incubated with different amounts of KH176(m) for 24 h. For the cellular superoxide measurements cells were then washed with M199 without phenol red and incubated with HEt (#D11347, ThermoFisher) in this same medium for 10 minutes. […] Total cellular fluorescence per well was normalized on the incubation with the probe but without compound (vehicle set as 100%). Experiments were performed at least three times with 3 wells per experiment.
# [3] = tested on: primary human skin fibroblasts; assay: Mitochondrial superoxide detection by mitoSOX oxidation; assay type: cell-based; details: 30 min preincubation, no external stimulus; read-out: IC50 mitochondrial superoxide levels (mitoSOX)
# Method: The cells were seeded at a density of 3 × 10^3 cells/well into 96-wells black plates. After 24 h, the cells were incubated with different amounts of KH176(m) in M199 without phenol red. This medium was used in all subsequent washes and incubations. After 30 min. incubation the cells were washed and subsequently incubated 1 µM mitoSOX (#M36008, ThermoFisher). […] After 10 min incubation the cells were washed twice and incubated for 30 min. to allow the accumulation of oxidized mitoSOX in the mitochondria. […] Wells with cells but without mitoSOX were used for background correction. Experiments were performed at least three times with 3 wells per experiment.
# [4] = tested on: P4 cell line; assay: GSH measurements (GSH-Glo) under BSO; assay type: cell-based, human; details: increasing BSO 24 h, 1 µM compound
# Method: Cells were seeded at a density of 4 × 10^3 cells/well into 96-wells white plates (#655098, Greiner Bio-one). After 24 h the cells were treated with semi-logarithmic dilutions of BSO up to a concentration of 100 µM alone or in co-incubation with a fixed amount of the test compound. 24 h after the treatment, GSH levels were measured with the GSH-Glo™ Glutathione Assay (# V6911, Promega) according to the manufacturer instructions. Luminescence was measured on a scanning microplate reader (BMG FLUOstar Omega).
# [5] = biological target: T1, human Prdx2 (Homo sapiens, UniProt P32119); assay: Surface Plasmon Resonance binding; details: immobilized Prdx2, SPR
# T1 construct: purchased Novus Biological NBC1-25855
# T1 sequence (P32119 1-198): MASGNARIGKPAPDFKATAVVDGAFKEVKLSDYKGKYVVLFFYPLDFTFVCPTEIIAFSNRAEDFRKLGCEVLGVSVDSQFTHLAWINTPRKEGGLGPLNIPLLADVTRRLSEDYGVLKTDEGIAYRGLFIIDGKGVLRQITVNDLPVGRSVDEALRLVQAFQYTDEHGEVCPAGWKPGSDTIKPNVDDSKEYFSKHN
# Method: Prior to protein immobilization all proteins were dialyzed against HBS-E (10 mM Hepes, 150 mM NaCl, 3 mM EDTA) buffer that was previously filtered through a 0.45 µM membrane using dialyze slide according to the manufacturer instruction. Human recombinant proteins peroxiredoxin 2 (Novus Biological NBC1-25855) and CCDC101 (Abcam Ab124547) were immobilized on CM5 (carboxymethylated dextran covalently attached to a gold surface) using the amine coupling method according to manufacturer’s recommendation (Biacore, GE Healthcare). Briefly the CM5 surface was activated with the mixture of EDC/NHS. Recombinant proteins at dilution 1 µg/ml in a corresponding buffer i.e. Peroxiredoxin 2 and CCDC101 in sodium acetate buffer 100 mM (pH 4.9). The control channel was activated with EDC/NHS. All channels were thereafter saturated with 0.1 M ethanolamine solution. KH176 andKH176m were solubilized in HBSS at stock solution 1 mM. They were thereafter further diluted in HBSS to final concentrations 0.31e-6M, 0.62e-6M, 1.25e-6M, 2.5e-6M and 5.0e-6M and injected over the flow cells at a flow rate equal to […] for 2 min, followed by a dissociation phase of 4 min. The sensor chip surface was regenerated with 1 mM HCl. The specific binding profiles were obtained after subtracting the response signal from the control empty channel and from blank-buffer injection. The specific binding was calculated using Biaeval 3 software (Biacore, GE Healthcare) with the postulate of 1:1 ligand/analyte interaction. Based on the Chi^2 value in regard to the Rmax (less than 10%) and the difference interval ±2.5 RU theoretic fitting compared to experimental results, best fitting algorithm between Langmuir or drifting base line was applied.
# [6] = 28-day repeat oral dose toxicity study, toxicokinetics; assay type: in vivo, Beagle dogs; details: dog
# Method: Pharmacokinetics and toxicokinetics measurements were performed by the commercial Contract Research Organizations Sai Life Sciences and WuXi AppTec, respectively, according to their standard protocols and in accordance with relevant guidelines and regulations. C57 BL/6 mice, Sprague Dawley rats, and Beagle dogs were studied.
# [7] = KH176 10 mg/kg/dose BID oral, F, Day 1, plasma
# [8] = KH176 10 mg/kg/dose BID oral, F, Day 28, plasma
# [9] = KH176 10 mg/kg/dose BID oral, M, Day 1, plasma
# [10] = KH176 10 mg/kg/dose BID oral, M, Day 28, plasma
# [11] = KH176 25 mg/kg/dose BID oral, F, Day 1, plasma
# [12] = KH176 25 mg/kg/dose BID oral, F, Day 28, plasma
# [13] = KH176 25 mg/kg/dose BID oral, M, Day 1, plasma
# [14] = KH176 25 mg/kg/dose BID oral, M, Day 28, plasma
# [15] = KH176 62.5 mg/kg/dose BID oral, F, Day 1, plasma
# [16] = KH176 62.5 mg/kg/dose BID oral, F, Day 28, plasma
# [17] = KH176 62.5 mg/kg/dose BID oral, M, Day 1, plasma
# [18] = KH176 62.5 mg/kg/dose BID oral, M, Day 28, plasma
smiles,measurement,setting,value
CC1=C(C)C(=O)C(CC[C@](C)(O)C(=O)N[C@@H]2CCCNC2)=C(C)C1=O [KH176m],Reduction of H2O2-induced radicals and O2.- (CM-H2DCFDA oxidation),[1],able to reduce the levels of both radicals
same,pEC50,[2],5.77
same,pIC50,[3],5.85
same,GSH level under BSO,[4],remained unaffected
same,Binding to Prdx2,[5]; 0.31-5.0 µM,dose-dependent binding
same,pKd,"[5]; read-out: Affinity (Kd), Langmuir one site model",6.52
same,AUC0–24 h Ratio KH176m/KH176,"[6]; KH176 10 mg/kg/dose BID oral, F, Day 1",0.864
same,AUC0–24 h,[6]; [7],7640 ng·h/mL
same,Cmax,[6]; [7],539 ng/mL
same,T1/2,[6]; [7],5.4 h
same,AUC0–24 h Ratio KH176m/KH176,"[6]; KH176 10 mg/kg/dose BID oral, F, Day 28",0.719
same,AUC0–24 h,[6]; [8],10500 ng·h/mL
same,Cmax,[6]; [8],786 ng/mL
same,T1/2,[6]; [8],4.7 h
same,AUC0–24 h Ratio KH176m/KH176,"[6]; KH176 10 mg/kg/dose BID oral, M, Day 1",0.848
same,AUC0–24 h,[6]; [9],13900 ng·h/mL
same,Cmax,[6]; [9],946 ng/mL
same,T1/2,[6]; [9],4.7 h
same,AUC0–24 h Ratio KH176m/KH176,"[6]; KH176 10 mg/kg/dose BID oral, M, Day 28",0.668
same,AUC0–24 h,[6]; [10],12700 ng·h/mL
same,Cmax,[6]; [10],916 ng/mL
same,T1/2,[6]; [10],7.7 h
same,AUC0–24 h Ratio KH176m/KH176,"[6]; KH176 25 mg/kg/dose BID oral, F, Day 1",0.845
same,AUC0–24 h,[6]; [11],35400 ng·h/mL
same,Cmax,[6]; [11],2200 ng/mL
same,AUC0–24 h Ratio KH176m/KH176,"[6]; KH176 25 mg/kg/dose BID oral, F, Day 28",0.823
same,AUC0–24 h,[6]; [12],32900 ng·h/mL
same,Cmax,[6]; [12],2170 ng/mL
same,AUC0–24 h Ratio KH176m/KH176,"[6]; KH176 25 mg/kg/dose BID oral, M, Day 1",0.967
same,AUC0–24 h,[6]; [13],41200 ng·h/mL
same,Cmax,[6]; [13],2610 ng/mL
same,T1/2,[6]; [13],11.1 h
same,AUC0–24 h Ratio KH176m/KH176,"[6]; KH176 25 mg/kg/dose BID oral, M, Day 28",0.970
same,AUC0–24 h,[6]; [14],38700 ng·h/mL
same,Cmax,[6]; [14],2270 ng/mL
same,T1/2,[6]; [14],14.3 h
same,AUC0–24 h Ratio KH176m/KH176,"[6]; KH176 62.5 mg/kg/dose BID oral, F, Day 1",0.908
same,AUC0–24 h,[6]; [15],57300 ng·h/mL
same,Cmax,[6]; [15],3550 ng/mL
same,T1/2,[6]; [15],5.3 h
same,AUC0–24 h Ratio KH176m/KH176,"[6]; KH176 62.5 mg/kg/dose BID oral, F, Day 28",0.938
same,AUC0–24 h,[6]; [16],80200 ng·h/mL
same,Cmax,[6]; [16],4990 ng/mL
same,T1/2,[6]; [16],12.2 h
same,AUC0–24 h Ratio KH176m/KH176,"[6]; KH176 62.5 mg/kg/dose BID oral, M, Day 1",0.743
same,AUC0–24 h,[6]; [17],68000 ng·h/mL
same,Cmax,[6]; [17],4020 ng/mL
same,T1/2,[6]; [17],12.9 h
same,AUC0–24 h Ratio KH176m/KH176,"[6]; KH176 62.5 mg/kg/dose BID oral, M, Day 28",0.835
same,AUC0–24 h,[6]; [18],85200 ng·h/mL
same,Cmax,[6]; [18],5250 ng/mL
